Results published in PubChem BioAssay (NCI).
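Five compound concentrations were applied to cells in 96-well plates for 48 hours; endpoints were derived by simple linear interpolation of the resulting dose-response curve. GI50: concentration for 50% inhibition of growth. TGI: total growth inhibition.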

Legend:
Experiment in all cases: DTP human tumour cell line panel, 48 h
COLO 205 colon = tested on: COLO 205 colon
HOP-92 NSCLC = tested on: HOP-92 NSCLC
KM12 colon = tested on: KM12 colon
TK-10 renal = tested on: TK-10 renal
PC-3 prostate = tested on: PC-3 prostate
NCI-H23 lung = tested on: NCI-H23 lung
OVCAR-4 ovarian = tested on: OVCAR-4 ovarian
HL-60(TB) leukemia = tested on: HL-60(TB) leukemia
SK-MEL-2 melanoma = tested on: SK-MEL-2 melanoma
OVCAR-8 ovarian = tested on: OVCAR-8 ovarian

Compound	GI50 (COLO 205 colon) [µM]	TGI (COLO 205 colon) [µM]	GI50 (HOP-92 NSCLC) [µM]	TGI (HOP-92 NSCLC) [µM]	GI50 (KM12 colon) [µM]	TGI (KM12 colon) [µM]	GI50 (TK-10 renal) [µM]	TGI (TK-10 renal) [µM]	GI50 (PC-3 prostate) [µM]	TGI (PC-3 prostate) [µM]	GI50 (NCI-H23 lung) [µM]	TGI (NCI-H23 lung) [µM]	GI50 (OVCAR-4 ovarian) [µM]	TGI (OVCAR-4 ovarian) [µM]	GI50 (HL-60(TB) leukemia) [µM]	TGI (HL-60(TB) leukemia) [µM]	GI50 (SK-MEL-2 melanoma) [µM]	TGI (SK-MEL-2 melanoma) [µM]	TGI (OVCAR-8 ovarian) [µM]	GI50 (OVCAR-8 ovarian) [µM]
COC(=O)[C@@]1(C)CC[C@]2(C)CC[C@]3(C)C4=CC=C5C(=CC(=O)C(O)=C5C)[C@]4(C)CC[C@@]3(C)[C@@H]2C1	0.182	0.437	0.163	0.362	0.369	1.49	0.185	0.449	0.24	0.573	0.235	0.637	0.153	0.424	0.163	0.684	0.24	0.555		
CC(=O)OC1C(CCl)OC(N=[N+]=[N-])C(OC(C)=O)C1OC(C)=O (stereo not given)		> 100				> 100		> 100				> 100		> 100		> 100		> 100	> 100	
CC(C)(C)[Si](C)(C)O/N=C\c1ccc(O[Si](C)(C)C(C)(C)C)cc1		> 100				> 100		> 100				> 100		> 100		> 100		> 100	> 100	
C=C1C(=O)O[C@@H]2C[C@@H]1CC[C@@]1(C)O[C@@H]1CC[C@@]1(C)O[C@@H]1CC[C@@]2(C)O	14.4	31			26.2	> 100	23.4	67.6	34.9	> 100	1.58	3.14	12.3	34.3	10.3	32.8	23	75.2	> 100	29
C[C@H]1CC(=O)C2=CCCC3(SCCCS3)[C@@H]2[C@H]1CO		> 100		> 100		> 100		> 100				> 100		> 100		> 100		> 100	> 100	
COc1cc2cc[n+]3c4cc(OC)c(OC)cc4c(C)cc3c2cc1OC		> 100		> 100		> 100		> 100				> 100		> 100		> 100		> 100	> 100	
C[C@H]1CC[C@@H]2[C@@H](C)[C@H]3[C@H](C[C@H]4[C@@H]5CC=C6C[C@@H](O)CC[C@]6(C)[C@H]5C[C@H](O)[C@]34C)N2C1		> 100		> 100		> 100		> 100		> 100		> 100		> 100				> 100	> 100	
Cc1cc(C)cc(Sc2c([N+](=O)[O-])ncn2C)c1		31.8		41.7		53.8		72.4				33.3		44.1				25.8	29.7	
Cc1nc(/N=C(\N)NC(=O)Nc2ccccc2Cl)sc1C	0.474	4.57	1.54	15.8	0.405	> 100	1.84	6.41	0.659	> 100	0.687	> 74.9			0.331	28.9	0.571	16.4	> 40.2	0.592
